Data from ChEMBL document CHEMBL1130960, “QSAR study of the peptidic fibrinogen inhibitors FK633, FR158999 and related derivatives, using a novel and useful hydrophobic descriptor (logPmw)” (Bioorg Med Chem Lett, 1998).

Assay: Inhibition of binding to fibrinogen receptor

SMILES	Log IC50
CC[C@H](C)[C@H](NC(=O)[C@H](CC(=O)O)NC(=O)CCCOc1ccc(C(=N)N)cc1)C(=O)O	-6.85
CC(C)c1ccc(OCCNC(=O)C(CC(=O)O)NC(=O)CCCOc2ccc(C(=N)N)cc2)cc1 (stereo unspecified)	-6.4
CCCCC(NC(=O)C(CC(=O)O)NC(=O)CCCOc1ccc(C(=N)N)cc1)C(=O)O (stereo unspecified)	-7.12
COc1ccc(CC(NC(=O)C(CC(=O)O)NC(=O)CCCOc2ccc(C(=N)N)cc2)C(=O)O)cc1 (stereo unspecified)	-6.89
COc1ccc(CC(NC(=O)C(CC(=O)O)NC(=O)CCCCOc2ccc(C(=N)N)cc2)C(=O)O)cc1 (stereo unspecified)	-6.57
CCN(CC)C(=O)[C@@H](NC(=O)[C@H](CC(=O)O)NC(=O)CCCOc1ccc(C(=N)N)cc1)C(C)C	-6.6
COC(=O)C(Cc1ccc(O)cc1)NC(=O)C(CC(=O)O)NC(=O)CCCCOc1ccc(C(=N)N)cc1 (stereo unspecified)	-5.35
CC(C)[C@H](NC(=O)[C@H](CC(=O)O)NC(=O)CCCOc1ccc(C(=N)N)cc1)C(=O)NC1CCCCC1	-6.7
CC(C)C(NC(=O)C(CC(=O)O)NC(=O)CCCOc1ccc(C(=N)N)cc1)C(=O)O (stereo unspecified)	-6.96

Further lines, results first:

Log IC50	SMILES
-6.87	CC(C)CC(NC(=O)C(CC(=O)O)NC(=O)CCCOc1ccc(C(=N)N)cc1)C(=O)O (stereo unspecified)
-6.19	N=C(N)c1ccc(OCCCCC(=O)NC(CC(=O)O)C(=O)NC(Cc2ccc(O)cc2)C(=O)O)cc1 (stereo unspecified)
-6.64	CC(C)(C)CC(NC(=O)C(CC(=O)O)NC(=O)CCCOc1ccc(C(=N)N)cc1)C(=O)O (stereo unspecified)
-6.3	Cc1ccc(OCCNC(=O)C(CC(=O)O)NC(=O)CCCOc2ccc(C(=N)N)cc2)cc1C (stereo unspecified)
-6.8	N=C(N)c1ccc(OCCCC(=O)NC(CC(=O)O)C(=O)NC(Cc2ccc(O)cc2)C(=O)O)cc1 (stereo unspecified)
-6.2	CC(C)[C@H](NC(=O)[C@H](CC(=O)O)NC(=O)CCCOc1ccc(C(=N)N)cc1)C(N)=O
-4.92	N=C(N)c1ccc(OCCCCC(=O)NC(CC(=O)O)C(=O)NC(CO)C(=O)O)cc1 (stereo unspecified)
-5.9	CC(C)C(C)NC(=O)C(CC(=O)O)NC(=O)CCCOc1ccc(C(=N)N)cc1 (stereo unspecified)
-7.5	CC(C)[C@H](NC(=O)[C@H](CC(=O)O)NC(=O)CCCOc1ccc(C(=N)N)cc1)C(=O)N1CCS(=O)(=O)CC1
-6.64	CC(C)C(NC(=O)C(CC(=O)O)NC(=O)CCCCOc1ccc(C(=N)N)cc1)C(=O)O (stereo unspecified)
-7.1	CC(C)[C@H](NC(=O)[C@H](CC(=O)O)NC(=O)CCCOc1ccc(C(=N)N)cc1)C(=O)N1CCOCC1
-6.5	CCc1ccc(OCCNC(=O)C(CC(=O)O)NC(=O)CCCOc2ccc(C(=N)N)cc2)cc1 (stereo unspecified)
